Test [1] relates to MNFS60 (murine AML cells). The test can be described thus: Cell viability assay in MCSF dependent MNFS60 cells (Cell Titer Glo). In kind it is cell-based. To be noted: Mus musculus; tested at about 1 μM; MCSF 10 ng/mL, 72 hrs; read-out: CPEC50 MNFS60MCSF percent inhibition. The essentials:
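MNFS60 cells, 5,000 per well in RPMI-1640/10% FBS, grown with 10 ng/mL MCSF and 3-fold compound dilutions for 72 h at 37 °C. Viable cells measured by CellTiter-Glo luminescence, triplicates; EC50 fitted, with MCSF-free wells as 100% inhibition.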
In general terms: In ATP-based viability assays light output follows the ATP content of the culture.

The next test addresses T1, PDGFRb (Homo sapiens, UniProt P09619).
T1 construct: The kinase domain of PDGFRβ was assayed in 50 mM Hepes; purchased Invitrogen P3082
The test can be described thus: PDGFRb kinase in vitro biochemical assay (alphascreen). To be noted: tested at about 1 μM; read-out: PDGF RK BETA percent inhibition. Background: Bead proximity is the source of the signal in Alpha formats.

In test [2] the target is T2, full-length human CSF-1R receptor (Homo sapiens, UniProt P07333).
T2 construct: transfected with the full-length human CSF-1R receptor cloned in house; expressed in transfected cells; host or cells: HEK293H (Invitrogen Cat. #11631017)
T2 sequence (P07333 20-972): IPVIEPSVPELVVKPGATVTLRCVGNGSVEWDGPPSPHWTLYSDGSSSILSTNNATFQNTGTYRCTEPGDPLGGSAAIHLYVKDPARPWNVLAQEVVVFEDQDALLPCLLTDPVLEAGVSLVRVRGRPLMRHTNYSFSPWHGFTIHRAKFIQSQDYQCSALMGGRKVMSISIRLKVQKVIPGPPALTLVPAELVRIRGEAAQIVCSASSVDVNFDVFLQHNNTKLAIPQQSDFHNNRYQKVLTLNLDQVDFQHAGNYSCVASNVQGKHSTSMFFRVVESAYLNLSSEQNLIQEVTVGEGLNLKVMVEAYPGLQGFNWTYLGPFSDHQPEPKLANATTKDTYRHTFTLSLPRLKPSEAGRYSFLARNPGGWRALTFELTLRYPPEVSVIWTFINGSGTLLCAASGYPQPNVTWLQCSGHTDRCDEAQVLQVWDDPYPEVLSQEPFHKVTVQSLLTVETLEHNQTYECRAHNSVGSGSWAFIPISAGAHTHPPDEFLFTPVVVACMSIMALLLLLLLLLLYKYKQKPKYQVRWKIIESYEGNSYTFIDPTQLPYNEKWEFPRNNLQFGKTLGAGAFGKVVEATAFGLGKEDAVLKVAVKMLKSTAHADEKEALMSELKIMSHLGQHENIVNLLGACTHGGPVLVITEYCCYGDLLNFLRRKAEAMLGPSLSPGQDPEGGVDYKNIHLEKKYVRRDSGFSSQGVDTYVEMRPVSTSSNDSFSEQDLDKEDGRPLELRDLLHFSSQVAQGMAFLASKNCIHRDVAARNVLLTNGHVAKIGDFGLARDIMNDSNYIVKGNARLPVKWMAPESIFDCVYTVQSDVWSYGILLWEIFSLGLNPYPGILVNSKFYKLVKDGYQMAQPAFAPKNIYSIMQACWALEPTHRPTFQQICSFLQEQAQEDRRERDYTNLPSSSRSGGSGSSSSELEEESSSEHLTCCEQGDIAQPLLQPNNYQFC
The test is described as follows: In vitro inhibition of CSF-1R receptor tyrosine phosphorylation in transfected HEK293H cells. Type of test: cell-based. To be noted: HEK293-H, tested at about 1 μM, 50 ng/mL MCSF, read-out: PCSF1R percent inhibition. How it is done: To test the inhibition of CSF-1R receptor tyrosine phosphorylation, HEK293H purchased from Invitrogen Cat. #11631017 cells transfected with the full-length human CSF-1R receptor cloned in house into mammalian episomal transfection vector were incubated for 1 h with serial dilutions of compounds starting at 10 μM with 3 fold dilutions and then stimulated for 8 min with 50 ng/mL MCSF. After the supernatant was removed, the cells were lysed on ice with lysis buffer (150 mM NaCl, 20 mM Tris, pH 7.5, 1 mM EDTA, 1 mM EGTA, 1% Triton X-100 and NaF, protease and phosphatase inhibitors) and then shaken for 15-20 min at 4° C. The lysate was then transferred to total CSF-1R antibody coated 96-well plates that had already been blocked with 3% Blocker A from Mesoscale discovery (MSD) for 2 hours and washed afterwards. Lysates were incubated overnight at 4° C. and the plates were then washed 4× with MSD Tris Wash Buffer. The SULFO-TAG anti-pTyr antibody from MSD was diluted to 20 nM final in 1% Blocker A (MSD) solution and added to the washed plates and incubated for 1.5-2 h before addition of read buffer (MSD). The plates were read on the Sector 6000 instrument (MSD). Raw data was imported in Abase and EC50s calculated with XL-fit data analysis software.

In test [3] the target is T3, cytoplasmic domain of the human CSF-1R (Homo sapiens, UniProt P07333).
T3 construct: Recombinant protein corresponding to the cytoplasmic domain of the human CSF-1R; purchased Invitrogen Corporation, Carlsbad, Calif; PV3249
T3 sequence (P07333 539-972 limits assumed): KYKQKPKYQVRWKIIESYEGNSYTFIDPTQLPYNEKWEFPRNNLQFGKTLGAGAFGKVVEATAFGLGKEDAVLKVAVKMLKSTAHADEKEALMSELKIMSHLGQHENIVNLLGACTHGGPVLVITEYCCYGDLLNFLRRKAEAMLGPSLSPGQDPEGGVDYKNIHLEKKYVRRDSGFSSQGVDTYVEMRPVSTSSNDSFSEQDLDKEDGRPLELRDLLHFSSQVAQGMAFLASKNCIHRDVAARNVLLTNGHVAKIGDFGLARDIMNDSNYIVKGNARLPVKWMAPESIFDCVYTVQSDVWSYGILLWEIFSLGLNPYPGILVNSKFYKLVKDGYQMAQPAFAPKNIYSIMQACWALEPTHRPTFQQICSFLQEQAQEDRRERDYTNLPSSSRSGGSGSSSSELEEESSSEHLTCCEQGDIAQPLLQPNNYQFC
The test can be described thus: In vitro kinase assay for CSF-1R (AlphaScreen). In kind it is biochemical. The settings on record: tested at about 1 μM; read-out: CSF1RK 1 percent inhibition. The essentials:
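Recombinant CSF-1R cytoplasmic domain (4 nM) phosphorylated biotinylated peptide (0.05 μM) at 1.0 μM ATP in HEPES with Mg2+/Mn2+, 2 h at room temperature, compounds from 25 μM in 3-fold steps. AlphaScreen anti-phosphotyrosine PT66 detection; IC50 by non-linear regression.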

In another test the target is T4, cKIT (Homo sapiens, UniProt P10721).
T4 construct: The kinase domain of cKIT was assayed in 50 mM Hepes; purchased Upstate 14-559
T4 sequence (P10721 589-937 limits assumed): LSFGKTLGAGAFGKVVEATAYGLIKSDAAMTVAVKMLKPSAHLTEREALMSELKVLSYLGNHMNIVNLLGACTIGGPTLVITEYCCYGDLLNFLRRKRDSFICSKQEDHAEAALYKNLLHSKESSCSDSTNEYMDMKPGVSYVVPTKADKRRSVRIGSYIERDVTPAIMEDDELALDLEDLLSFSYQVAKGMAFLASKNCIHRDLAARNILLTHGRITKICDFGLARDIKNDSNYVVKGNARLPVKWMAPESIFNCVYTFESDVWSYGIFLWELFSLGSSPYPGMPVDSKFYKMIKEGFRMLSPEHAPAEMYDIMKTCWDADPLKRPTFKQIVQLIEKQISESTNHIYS
The test can be described thus: cKIT kinase in vitro biochemical assay (alphascreen). To be noted: tested at about 1 μM; read-out: CKIT percent inhibition.

T1 sequence (P09619 600-962 limits assumed): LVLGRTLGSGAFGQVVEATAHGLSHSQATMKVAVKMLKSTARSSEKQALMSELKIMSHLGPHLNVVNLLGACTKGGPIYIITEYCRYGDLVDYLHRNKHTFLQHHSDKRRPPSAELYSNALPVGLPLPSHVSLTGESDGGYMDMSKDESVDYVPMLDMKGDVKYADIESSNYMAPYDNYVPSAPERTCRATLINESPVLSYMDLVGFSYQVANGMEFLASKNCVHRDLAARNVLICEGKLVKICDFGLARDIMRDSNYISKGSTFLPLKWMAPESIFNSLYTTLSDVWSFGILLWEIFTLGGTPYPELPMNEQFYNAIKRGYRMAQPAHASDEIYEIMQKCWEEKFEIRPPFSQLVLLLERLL

`Cn1cc(-c2cncc(Oc3ccc4nc(N[C@@H]5CCCC[C@H]5O)sc4c3)n2)cn1` [Compound 93, (1R,2R)-2-(6-(6-(1-methyl-1H-pyrazol-4-yl)pyrazin-2-yloxy)benzo[d]thiazol-2-ylamino)cyclohexanol]: the inhibition (in general, the drop in the measured response relative to a control, in per cent) at 1 µM in test [1] is 82%; at PDGFRb, 22%; in test [2], 95%; in test [3], 100%; on cKIT it was 18%.
The like results for `CCCn1cc(-c2cncc(Oc3ccc4nc(N[C@@H]5CCCC[C@H]5O)sc4c3)n2)cn1` [Compound 94, (1R,2R)-2-(6-(6-(1-propyl-1H-pyrazol-4-yl)pyrazin-2-yloxy)benzo[d]thiazol-2-ylamino)cyclohexanol] were, in that order, 80%, 9%, 95%, 100% and 13%.
The like results for `Nc1ccc(-c2cncc(Oc3ccc4nc(N[C@@H]5CCCC[C@H]5O)sc4c3)n2)cn1` [Compound 97, (1R,2R)-2-(6-(6-(6-aminopyridin-3-yl)pyrazin-2-yloxy)benzo[d]thiazol-2-ylamino)cyclohexanol] were, in that order, 62%, 19%, 91%, 100% and 24%.
For `CN1CCN(c2ccc(-c3cncc(Oc4ccc5nc(N[C@@H]6CCCC[C@H]6O)sc5c4)n3)cn2)CC1` [Compound 98, (1R,2R)-2-(6-(6-(6-(4-methylpiperazin-1-yl)pyridin-3-yl)pyrazin-2-yloxy)benzo[d]thiazol-2-ylamino)cyclohexanol], in that order: 100%, 12%, 98%, 100% and 15%.
In the case of `CN1CCN(c2ccc(-c3cc(Oc4ccc5nc(N[C@@H]6CCCC[C@H]6O)sc5c4)cnc3-c3ccc(N4CCN(C)CC4)nc3)cn2)CC1` [Compound 107, (1R,2R)-2-(6-(5,6-bis(6-(4-methylpiperazin-1-yl)-pyridin-3-yl)pyridin-3-yloxy)benzo[d]thiazol-2-ylamino)cyclohexanol], the inhibition at 1 µM in test [1] came to 100%; on PDGFRb, 26%; in test [2], 86%; in test [3] it was 100%; on cKIT, 16%.
